How the values were obtained:
SARS-CoV-2 [1] = system: SARS-CoV-2; parameters: method as in PMID 32198291; details: Calu-3 cell line; read-out: EC50 (viral RNA copies); cited from earlier work
3CL^Pro = details: read-out: IC50 against 3CL^Pro; lead compound; cited from earlier work
SARS-CoV-2 [2] = details: co-administration of PF07321332 and Ritonavir, oral, phase II/III trials; cited from earlier work
SARS-CoV-2 3CL^Pro = SARS-CoV-2 3CL^Pro (Severe acute respiratory syndrome coronavirus 2, UniProt P0DTD1); assay: FRET-based 3CLPro enzymatic inhibition assay (SARS-CoV-2); format: biochemical; details: 0.2 μM enzyme, mean ± SE, n = 3
SARS-CoV 3CL^Pro = SARS-CoV 3CL^Pro (Severe acute respiratory syndrome coronavirus, UniProt P0C6X7); assay: biochemical
SARS-CoV-2 [3] = assay: SARS-CoV-2 infection assay in Vero E6 cells, viral RNA by qPCR; format: cell-based; details: final concentration 10 μM, initial screen

Structure (SMILES) | EC50 (SARS-CoV-2 [1]) | IC50 (3CL^Pro) | Reduction of overall hospitalizations (SARS-CoV-2 [2]) | IC50 (SARS-CoV-2 3CL^Pro) | IC50 (SARS-CoV 3CL^Pro) | Reduction of RNA loads of SARS-CoV-2 (relative level to DMSO control) (SARS-CoV-2 [3])
CC(C)(C)OC(=O)Nc1cccn([C@@H](CC2CC2)C(=O)N[C@@H](C[C@@H]2CCNC2=O)C(=O)C(=O)NCc2ccccc2)c1=O [13b] | 4000 to 5000 nM | 670 ± 180 nM | – | – | – | –
CC(C)(C)[C@H](NC(=O)C(F)(F)F)C(=O)N1C[C@H]2[C@@H]([C@H]1C(=O)N[C@H](C#N)C[C@@H]1CCNC1=O)C2(C)C [PF-07321332] | – | – | 89% | – | – | –
CC(C)C[C@H](NC(=O)[C@@H](NC(=O)C1CCCCC1)C(C)C)C(=O)N[C@H](C=O)C[C@@H]1CCCNC1=O [TPM1] | – | – | – | 241 ± 0.5 nM | 479 ± 29 nM | –
CC(C)C[C@H](NC(=O)[C@@H](NC(=O)c1ccco1)C(C)C)C(=O)N[C@H](C=O)C[C@@H]1CCCNC1=O [TPM5] | – | – | – | 59 ± 2 nM | 134 ± 1 nM | –
COc1ccc(/C=C/C(=O)N[C@H](C(=O)N[C@@H](CC(C)C)C(=O)N[C@H](C=O)C[C@@H]2CCCNC2=O)C(C)C)cc1 [TPM10] | – | – | – | 80 ± 2 nM | 231 ± 4 nM | –
CC(C)C[C@H](NC(=O)[C@H](Cc1ccccc1)NC(=O)/C=C/c1ccccc1)C(=O)N[C@H](C=O)C[C@@H]1CCCNC1=O [TPM16] | – | – | – | 166 ± 2 nM | 232 ± 1 nM | 10^3
CC[C@H](C)[C@H](NC(=O)/C=C/c1ccccc1)C(=O)N[C@H](C=O)C[C@@H]1CCCNC1=O [TPM19] | – | – | – | 1060 ± 31 nM | 1220 ± 312 nM | 10^3

— article PMC8878928 (International Journal of Molecular Sciences, 2022)
